Our source for the antimicrobial activity values is patent US9044426B2, “Antimicrobial peptides for treatment of infectious diseases” (Dr. Roland Berecz, priority 2011, dated 2015).

Where no end group is shown, it is not given here.

The test system of the assay is luminescent bacteria. The assay is described as follows: Luminescence screen of SPOT-synthesized peptides on luminescent bacteria, with recovery check. To be noted: 0.1 M Tris buffer pH 7.4, 20 mM glucose, luminescence after 4 hours, recovery inspected after 18 h. The assay is classed as cell-based. The protocol:
The peptides are synthesized using standard Fmoc-strategy on cellulose with the SPOT technology; they are positively charged peptides, which were then cleaved from the cellulose and solubilized in water. Peptides were transferred into wells containing luminescent bacteria, in 0.1 M Tris buffer (pH 7.4), containing 20 mM glucose. After 4 hours of incubation time, the luminescence was measured using a microtiter plate reader. Consequently, 50 μl of Mueller-Hinton media was added in order to check for recovery of the bacteria. The plates were manually inspected after 18 h of incubation time.
As for “KFKWWRMLI (also: cellulose-bound) [KFKWWRMLI (SEQ ID NO.:10), peptide synthesized on cellulose with the SPOT technology]”, the antimicrobial activity entry is on record as “showed antimicrobial activity”.
For “KRKKRFKWW (also: cellulose-bound) [KRKKRFKWW (SEQ ID NO.:29), peptide synthesized on cellulose with the SPOT technology]” the value was “showed antimicrobial activity”; for “KRRWRIWLV (also: cellulose-bound) [KRRWRIWLV (SEQ ID NO.:15), peptide synthesized on cellulose with the SPOT technology]”, “showed antimicrobial activity”.
Take “LRRWIRIRW (also: cellulose-bound) [LRRWIRIRW (SEQ ID NO.:21), peptide synthesized on cellulose with the SPOT technology]”: the antimicrobial activity entry is “showed antimicrobial activity”.
For “RIRRWKFRW (also: cellulose-bound) [RIRRWKFRW (SEQ ID NO.:6), peptide synthesized on cellulose with the SPOT technology]” the value was “showed antimicrobial activity”.
“RKFRWWVIR (also: cellulose-bound) [RKFRWWVIR (SEQ ID NO.:22), peptide synthesized on cellulose with the SPOT technology]”: the antimicrobial activity result is listed as “showed antimicrobial activity”.
The same measure for “RLKRWWKFL (also: cellulose-bound) [RLKRWWKFL (SEQ ID NO.:7), peptide synthesized on cellulose with the SPOT technology]”: “showed antimicrobial activity”; for “RRRWWKLMM (also: cellulose-bound) [RRRWWKLMM (SEQ ID NO.:20), peptide synthesized on cellulose with the SPOT technology]”: “showed antimicrobial activity”.
Consider “RTKKWIVWI (also: cellulose-bound) [RTKKWIVWI (SEQ ID NO.:28), peptide synthesized on cellulose with the SPOT technology]”, for which the antimicrobial activity result is recorded as “showed antimicrobial activity”.
The same measure for “WKWRVRVTI (also: cellulose-bound) [WKWRVRVTI (SEQ ID NO.:27), peptide synthesized on cellulose with the SPOT technology]”: “showed antimicrobial activity”; for “YRLRVKWKW (also: cellulose-bound) [YRLRVKWKW (SEQ ID NO.:26), peptide synthesized on cellulose with the SPOT technology]”: “showed antimicrobial activity”.
